We go through nine molecules from US8263585B2, “Organic compounds” (Novartis AG, priority 2007, dated 2012).

The structures appear in SMILES notation.

In this experiment the target is T1, human PI 3-Kγ (Homo sapiens, UniProt P48736).
T1 construct: Residues 38-1102 of human PI 3-Kγ are subcloned; made in house; host or cells: Sf9 (Spodoptera frugiperda) insect cells, baculovirus
T1 sequence (P48736 38-1102): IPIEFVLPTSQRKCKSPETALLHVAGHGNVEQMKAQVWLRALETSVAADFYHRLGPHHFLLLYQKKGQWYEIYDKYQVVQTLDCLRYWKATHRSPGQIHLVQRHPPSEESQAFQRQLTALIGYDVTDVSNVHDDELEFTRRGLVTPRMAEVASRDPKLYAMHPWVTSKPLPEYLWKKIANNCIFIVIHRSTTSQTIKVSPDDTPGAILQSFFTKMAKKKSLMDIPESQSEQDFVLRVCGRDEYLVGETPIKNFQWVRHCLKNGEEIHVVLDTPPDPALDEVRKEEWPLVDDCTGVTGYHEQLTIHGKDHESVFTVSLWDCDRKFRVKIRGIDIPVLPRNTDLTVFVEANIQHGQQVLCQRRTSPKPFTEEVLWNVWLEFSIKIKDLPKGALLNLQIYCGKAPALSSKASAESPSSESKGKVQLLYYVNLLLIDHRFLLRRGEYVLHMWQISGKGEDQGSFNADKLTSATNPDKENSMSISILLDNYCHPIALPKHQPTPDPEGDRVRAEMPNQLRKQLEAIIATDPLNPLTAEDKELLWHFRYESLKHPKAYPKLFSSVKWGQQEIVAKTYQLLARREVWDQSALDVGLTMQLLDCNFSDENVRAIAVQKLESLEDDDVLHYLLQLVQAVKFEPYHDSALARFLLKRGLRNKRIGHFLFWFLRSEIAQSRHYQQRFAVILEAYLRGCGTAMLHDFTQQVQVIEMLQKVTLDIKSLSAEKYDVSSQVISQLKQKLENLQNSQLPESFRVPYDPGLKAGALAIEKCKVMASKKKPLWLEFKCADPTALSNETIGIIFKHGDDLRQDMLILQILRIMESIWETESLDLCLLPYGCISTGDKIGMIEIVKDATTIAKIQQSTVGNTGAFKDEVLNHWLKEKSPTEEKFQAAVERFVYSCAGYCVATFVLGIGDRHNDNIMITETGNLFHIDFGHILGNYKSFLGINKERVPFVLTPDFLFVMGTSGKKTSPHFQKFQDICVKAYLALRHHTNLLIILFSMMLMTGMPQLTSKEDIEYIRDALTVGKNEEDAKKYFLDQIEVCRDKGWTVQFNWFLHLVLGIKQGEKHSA
Put plainly: in vitro kinase assay (Scintillation Proximity Assay): transfer of terminal phosphate of ATP to phosphatidylinositol. Type of experiment: biochemical. Particulars: recombinant GST-p110γ, 12.5 μM ATP assay mix, 60 minutes room temperature. From the text: Baculovirus expressing different fragments of human PI 3-Kγ fused to glutathione S-transferase (GST) have been previously described by Stoyanova, S., Bulgarelli-Leva, G., Kirsch, C., Hanck, T., Klinger, R., Wetzker, R., Wymann, M. P. (1997) Lipid- and protein kinase activities of G protein-coupled PI 3-kinase g: structure-activity analysis and interactions with wortmannin. Biochem. J., 324:489. Residues 38-1102 of human PI 3-Kγ are subcloned into the BamH1 and EcoR1 sites of the transfer vector pAcG2T (Pharmingen) to create a GST-PI 3-Kγ lacking the first 37 residues of PI 3-Kγ. To express the recombinant protein, Sf9 (Spodoptera frugiperda 9) insect cells are routinely maintained at densities between 3×10^5 and 3×10^6 cells/ml in serum containing TNMFH medium (Sigma). Sf9 cells, at a density of 2×10^6 are infected with human […] baculovirus at a multiplicity of infection (m.o.i.) of 1 for 72 hours. The infected cells are harvested by centrifugation at 1400 g for 4 minutes at 4° C. and the cell pellets are frozen at −80° C. Both Sf9 and Sf21 cells work equally well. Sf9 cells (1×10^9) are resuspended in 100 ml cold (4° C.) lysis buffer (50 mM Tris-HCl pH 7.5, 1% Triton X-100, 150 mM NaCl, 1 mM NaF, 2 mM DTT and protease inhibitors. Cells are incubated on ice for 30 minutes then centrifuged at 15000 g for 20 minutes at 4° C. Purification of the supernatant sample is carried out at 4° C. by affinity chromatography using SEPHAROSE™ agarose gel beads coupled to glutathione (from Amersham Pharmacia Biotech). A cell lysate/GST resin ratio of 50:1 is used. The GST resin is firstly pre-rinsed to remove ethanol preservative and then equilibrated with lysis buffer. Cell lysate (supernatant) is added (usually as 50 ml lysate to 1 ml GST resin in 50 ml tubes) and gently rotated on a mixer at 4° C. for 2-3 hours. The unbound flow through sample is collected by centrifugation at 1000 g for 5 minutes at 4° C. using a DENLEY™ centrifuge. The 1 ml GST resin containing bound material is transferred to a 15 ml FALCON™ centrifuge tube for subsequent washing and elution steps. Firstly a series of 3 cycles of washings (mixing by gentle inversion) is performed with 15 ml ice cold wash Buffer A (50 mM Tris-HCl pH 7.5, 1% Triton X-100, 2 mM DTT) interspersed with centrifugation at 1000 g for 5 minutes at 4° C. A final single wash step is performed with 15 ml ice cold wash Buffer B (50 mM Tris-HCl pH 7.5, 2 mM DTT) and then centrifuged at 1050 g for 5 minutes at 4° C. The washed GST resin is finally eluted with 4 cycles of 1 ml ice cold elution buffer (50 mM Tris-HCl pH 7.5, 10 mM reduced glutathione, 2 mM DTT, 150 mM NaCl, 1 mM NaF, 50% ethylene glycol and protease inhibitors) interspersed with centrifugation at 1000 g for 5 minutes at 4° C. Samples are aliquoted and stored at −20° C.
An in vitro kinase assay was established that measures the transfer of the terminal phosphate of adenosine triphosphate to phosphatidylinositol. The kinase reaction is performed in a white 96 well microtitre plate as a Scintillation Proximity Assay. Each well contains 10 μl test compound in 5% dimethylsulphoxide and 20 μl assay mix (40 mM Tris, 200 mM NaCl, 2 mM ethyleneglycol-aminoethyl-tetraacetic acid (EGTA), 15 μg/ml phosphatidylinositol, 12.5 μM adenosine triphosphate (ATP), 25 mM MgCl2, 0.1 μCi [^33P]ATP). The reaction is started by the addition of 20 μl of enzyme mix (40 mM Tris, 200 mM NaCl, 2 mM EGTA containing recombinant GST-p110γ). […]
For `Cc1nc(N)ncc1-c1ccnc(C(C)(C)C)n1` [Example 2-1, 2-tert-Butyl-4′-methyl-[4,5′]bipyrimidinyl-2′-ylamine], the IC50 turned out to be 223 nM.

`Cc1nc(N)ncc1-c1ccc(Cl)c(S(=O)(=O)N2CC(O)C2)c1` [Example 1-30, 1-[5-(2-Amino-4-methyl-pyrimidin-5-yl)-2-chloro-benzenesulfonyl]-azetidin-3-ol]: the IC50 was 135 nM.

For `Cc1nc(N)ncc1-c1ccc(Cl)c(S(=O)(=O)NC2CC2)c1` [Example 3-1, 5-(2-Amino-4-methyl-pyrimidin-5-yl)-2-chloro-N-cyclopropyl-benzenesulfonamide], the IC50 was determined as 219 nM.

`Cc1nc(N)ncc1-c1ccc(Cl)c(S(=O)(=O)N[C@H]2CC[C@@H](NC(=O)OC(C)(C)C)CC2)c1` [Example 3-17, cis-{4-[5-(2-Amino-4-methyl-pyrimidin-5-yl)-2-chloro-benzenesulfonylamino]-cyclohexyl}-carbamic acid tert-butyl ester]: the IC50 is 305 nM.

In the case of `Cc1nc(N)ncc1-c1ccc(C(F)(F)F)c(S(=O)(=O)N[C@@H]2CCC[C@@H]2O)c1` [Example 3-53, 5-(2-Amino-4-methyl-pyrimidin-5-yl)-N-((1R,2S)-2-hydroxy-cyclopentyl)-2-trifluoromethyl-benzenesulfonamide], the IC50 is 108 nM.

Regarding `Cc1nc(N)ncc1-c1ccc(Cl)c(NS(=O)(=O)c2cccc(Cl)c2)c1` [Example 3-35, N-[5-(2-Amino-4-methyl-pyrimidin-5-yl)-2-chloro-phenyl]-3-chloro-benzene sulfonamide], the IC50 amounted to 16 nM.

On to `Cc1nc(N)ncc1-c1ccc(Cl)c(S(=O)(=O)Nc2ccccc2)c1` [Example 1-1, 5-(2-Amino-4-methyl-pyrimidin-5-yl)-2-chloro-N-phenyl-benzenesulfonamide], for which the IC50 worked out at 4 nM.

With `Cc1nc(N)ncc1-c1ccc(Cl)c(S(=O)(=O)N(C)C)c1` [Example 1-15, 5-(2-Amino-4-methyl-pyrimidin-5-yl)-2-chloro-N2N-dimethyl-benzenesulfonamide], the IC50 worked out at 239 nM.

Take `Cc1nc(N)ncc1-c1ccc(Cl)c(NS(=O)(=O)c2ccccc2)c1` [Example 1-50, N-[5-(2-Amino-4-methyl-pyrimidin-5-yl)-2-chloro-phenyl]-benzenesulfonamide]: the IC50 came to 50 nM.
